Assay results reported in patent publication US20220380937A1, “IDENTIFICATION OF SPLICING-DERIVED ANTIGENS FOR TREATING CANCER” (THE REGENTS OF THE UNIVERSITY OF CALIFORNIA, priority 2019, published 2022).

Test system: CD3+CD8+ T cells
Experiment: MHC class I dextramer-based T-cell recognition assay (flow cytometry of PBMCs/TILs with pMHC complexes)
Design: species or system human
Settings: for tested healthy donors whose T cells recognized the epitope: three HLA-matched healthy donors tested, PBMCs
Experimental: Assays to determine immunogenicity and/or TCR binding can be performed. One such as is the dextramer flow cytometery assay. Generally, custom-made HLA-matched MHC Class I dextramer:peptide (pMHC) complexes are developed or purchased (Immudex, Copenhagen, Denmark). T cells from peripheral blood mononuclear cells (PBMCs) or tumor-infiltrating lymphocytes (TILs) are incubated the pMHC complexes and stained, which are then run through a flow cytometer to determine if the peptide is capable of binding a TCR of a T cell.
Finally, the inventors sought to validate the immunogenicity and T-cell recognition of IRIS-identified candidate TCR targets using an MHC class I dextramer-based assay (12,24). The inventors focused on predicted AS-derived tumor epitopes with strong putative HLA-binding affinity to common HLA types found in at least five of the 22 patients. The inventors selected seven AS-derived tumor-associated epitopes (five HLA-A02:01 and two HLA-A03:01) for dextramer-based T-cell recognition testing (Table 4). […] The inventors obtained customized HLA-matched, fluorescently labeled MEW class I dextramer:peptide (pMHC) complexes for each candidate epitope. The inventors conducted flow cytometry to detect CD8^+ T-cell binding with the pMHC complexes using available peripheral blood mononuclear cells (PBMCs) and/or ex vivo-expanded tumor-infiltrating lymphocytes (TILs). Based on the binding of each AS-derived tumor epitope to a patient's CD3^+CD8^+ T cells, the inventors classified epitope reactivity as ‘positive’ (binding>0.1% of cells), ‘marginal’ (binding 0.01-0.1% of cells), or ‘negative’ (binding<0.01% of cells). […] The inventors analyzed samples from two HLA-A02:01 and four HLA-A03:01 patients, as well as samples from three HLA-A02:01 and three HLA-A03:01 healthy donors (Table 5, Supplementary Data).
Dextramer flow-cytometric analysis of PBMCs and TILs. For each AS-derived peptide selected for validation, custom-made HLA-matched MHC Class I dextramer:peptide (pMHC) complexes were purchased from Immudex (Copenhagen, Denmark). Immudex also provided pMHC complexes for common cytomegalovirus (CMV) epitopes (cat. nos. WB2132 and WC2197) and for a nonhuman epitope (NI3233) as a negative control. Each pMHC complex was purchased with two separate tags for APC or PE fluorescence labeling, to increase specificity to targeted T cells with dual labeling.
To facilitate proper gating of CD8^+ T cells from PBMC and TIL populations, the following panel of antibodies (from BioLegend) was set up: CD3 BV605 (cat. no. 300460), CD8 FITC (cat. no. 344704), CD4 BV421 (cat. no. 317434), CD19 BV421 (cat. no. 302234), CD56 BV421 (cat. no. 362552), and CD14 BV421 (cat. no. 301828). For single-color compensation controls, OneComp eBeads were used (Thermo Fisher Scientific, cat. no. 01-1111-41).
For each set of pMHC complexes, at least 3×10^6 cells were stained according to manufacturer's guidelines. Briefly, cells were thawed in a 37° C. water bath and washed with RPMI and D-PBS (Fisher Scientific, cat. no. MT21031CV) before staining for cell viability with the Zombie Violet Viability Kit (BioLegend, cat. no. 423113). Next, the appropriate amount of each pMHC complex in a staining buffer of D-PBS with 5% fetal bovine serum (Fisher Scientific, cat. no. MT35016CV) was added to each sample. After 10 min, the aforementioned antibody cocktail was added. After a 30-min incubation period, cells were washed twice in the same staining buffer. All samples were tested in a BD LSRII flow cytometer, and data were analyzed with FlowJo (Treestar). For gating, the lymphocyte population was first selected using forward and side scatter, and then the BV421-negative population was gated out (i.e. excluding dead cells and the CD14, CD19, CD56, and CD4 populations) before selecting the CD3^+CD8^+population. […]

[1] = patient LB2867, ex vivo-expanded TILs

Which “recognition by patient T cells” value (GBM patients, PBMCs and/or ex vivo-expanded TILs) does the source give for KIGRLVTRK (listed as Homo sapiens) here?
Its value is “recognized”.

What about the “tested patients whose T cells recognized the epitope” value (four HLA-A03:01 GBM patients tested, PBMCs and/or TILs, at least marginal reactivity = recognized) of the same sequence?
Its value is “all four tested patients”.

What about the “epitope-reactive T cells, % of T cells in PBMCs” value (patient LB2867, PBMCs) of the same sequence?
Its value is 0.03%.

What about the “epitope reactivity (recognition) in expanded TIL population” value [1] of the same sequence?
Its value is “positive (‘positive’ (binding>0.1% of cells))”.

What about the “epitope-reactive T cells, % of T cells in TILs” value [1] of the same sequence?
Its value is 1.69%.

And the “tested healthy donors whose T cells recognized the epitope” value?
The value was “one of the three”.

YAIVWVNGV (listed as Homo sapiens) was tested. Which “reactive cells, % of CD3+CD8+ T cells” value (the one recognizing healthy donor of three tested) did it give?
Its value is 0.013%.

And the “tested healthy donors whose T cells recognized the epitope” value?
The value was “only one healthy donor”.
